The values below come from the SangsterLogP compilation.

One may read the logP as the decadic logarithm of the partition coefficient of the neutral form, usually between octanol and water. For `CC(=O)c1cc2cccc3ccc4cccc1c4c32`, the log partition coefficient (logP) amounted to 4.16.

`COC(=O)c1ccc2ccc3cccc4ccc1c2c34` yielded a logP of 4.73. `Brc1c2ccccc2c(Br)c2ccccc12`: the logP amounted to 6.29. With `Brc1ccc2ccc3cccc4ccc1c2c34` the figure was 5.81; with `Brc1cc2ccc3cccc4ccc(c1)c2c34`, 5.8. As for `Clc1c2ccccc2cc2ccccc12`, the figure is 5.27; as for `COC(=O)c1c2ccccc2cc2ccccc12`, 3.83. As for `CC(=O)c1ccc2ccc3cccc4ccc1c2c34`, the figure is 4.18; as for `N#Cc1c2ccccc2cc2ccccc12`, 3.98; as for `O=C1c2ccccc2C(=O)c2ccccc21`, 3.28. Consider `O=Cc1ccc2ccc3cccc4ccc1c2c34`, for which the logP turned out to be 4.23.

With `Brc1c2ccccc2cc2ccccc12`, the lipophilicity (logP) was determined as 5.37. With `O=Cc1c2ccccc2cc2ccccc12`, the log partition coefficient (logP) came out at 3.77. As for `NC(=O)c1c2ccccc2cc2ccccc12`, the figure is 2.23; as for `Brc1ccc2ccc3ccc(Br)c4ccc1c2c34`, 6.73.

For `CC(=O)c1c2ccccc2cc2ccccc12`, the logP was found to be 3.6.

For the compound `Brc1cc2cccc3ccc4cccc1c4c32`, the logP came to 5.84.

Regarding `Brc1ccc2ccc3c(Br)ccc4ccc1c2c43`, the logP is 6.69. Regarding `COC(=O)c1cc2ccc3cccc4ccc(c1)c2c34`, the log partition coefficient (logP) was 4.85.

As for `COc1c2ccccc2cc2ccccc12`, the lipophilicity (logP) is 4.36. Consider `Brc1cc(Br)c2ccc3cccc4ccc1c2c43`, for which the logP worked out at 6.85. With `CC(=O)c1cc2ccc3cccc4ccc(c1)c2c34` the figure was 4.29.
